In the first experiment the test system is Utrophin A promoter linked to a luciferase reporter gene. Briefly: Luciferase reporter assay (murine H2K cells). Type of experiment: cell-based. The note with it: Mus musculus, H2K mdx, luciferase level relative to control; H2K/mdx/Utro A reporter cells; compound 10 μM final concentration; read-out: Activity. The method, boiled down:
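Compound at 10 μM final was applied for 48 hrs to plated H2K mdx myoblasts (33° C, 10% CO2, interferon-containing medium) bearing a luciferase gene under the utrophin A promoter. Luminescence from lysed cells served as read-out.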
`Cc1ccc(-c2nc3cc(N)ccc3s2)cc1` [Example 213, 2-p-tolylbenzo[d]thiazol-5-amine]: the activity at 10 µM is less than 200%.
Still for that read-out and setting: under `O=[N+]([O-])c1ccc2nc(-c3ccccc3)oc2c1` [Example 130, 6-nitro-2-phenylbenzo[d]oxazole] stands 201 to 300%; under `O=C(Nc1ccc2oc(-c3ccccc3)nc2c1)c1ccc2ccccc2c1` [Example 36, N-(2-phenylbenzo[d]oxazol-5-yl)-2-naphthamide], less than 200%.
For the compound `CCCC(=O)Nc1cccc2oc(-c3ccc(C)cc3)nc12` [Example 235, N-(2-p-tolylbenzo[d]oxazol-4-yl)butyramide], the activity at 10 µM was less than 200%.
Same read-out and setting: under `CCS(=O)(=O)c1ccc2oc(-c3cccc4ccccc34)nc2c1` [Example 427, 5-(ethylsulfonyl)-2-(naphthalen-1-yl)benzo[d]oxazole] stands less than 200%; under `Cc1ccc(-c2nc3cc(C(=O)NC(C)C)ccc3o2)cc1` [Example 181, N-isopropyl-2-p-tolylbenzo[d]oxazole-5-carboxamide], 301 to 400%; under `CCCCNc1ccc2oc(-c3ccccc3)nc2c1` [Example 167, N-butyl-2-phenylbenzo[d]oxazol-5-amine], greater than 401%.
On the same count and under the same terms, under `O=C(Nc1ccc2oc(-c3ccccc3)nc2c1)c1ccc(Cl)c(Cl)c1` [Example 28, 3,4-dichloro-N-(2-phenylbenzo[d]oxazol-5-yl)benzamide] stands less than 200%; under `Clc1ccc(-c2cc3cc(-c4ccccc4)ccc3[nH]2)cc1` [Example 339, 2-(4-chlorophenyl)-5-phenyl-1H-indole], less than 200%.
Same read-out and setting: under `O=C(Nc1ccc2oc(-c3ccccc3)nc2c1)c1cccc2ccccc12` [Example 35, N-(2-phenylbenzo[d]oxazol-5-yl)-1-naphthamide] stands less than 200%; under `O=C(Nc1ccc2oc(-c3ccc4ccccc4c3)nc2c1)c1cccs1` [Example 385, N-(2-(naphthalen-2-yl)benzo[d]oxazol-5-yl)thiophene-2-carboxamide], less than 200%; under `CC(C)CNc1ccc2oc(-c3ccc(Cl)cc3)nc2c1` [Example 183, 2-(4-chlorophenyl)-N-isobutylbenzo[d]oxazol-5-amine], 301 to 400%.
`CCN(CC)c1ccc(-c2nc3cc(NC(=O)c4ccc(C(F)(F)F)cc4)ccc3o2)cc1` [Example 69, N-(2-(4-(diethylamino)phenyl)benzo[d]oxazol-5-yl)-4-(trifluoromethyl)benzamide]: the activity at 10 µM is less than 200%.
`O=C(CC(F)(F)F)Nc1ccc2oc(-c3ccccc3)cc2c1` [Example 408, 2-phenyl-5-(3′,3′,3′-trifluoropropanamido)benzofuran]: the activity at 10 µM was less than 200%.
Regarding `O=S(=O)(Nc1ccc2oc(-c3ccccc3)nc2c1)c1ccccc1` [Example 221, N-(2-phenylbenzo[d]oxazol-5-yl)benzenesulfonamide], the activity at 10 µM was less than 200%.
The same measure, in the same setting: next, `CC(C)(C)c1ccc2oc(-c3ccccc3)nc2c1` [Example 129, 5-tert-butyl-2-phenylbenzo[d]oxazole]: greater than 401%.
The same measure, in the same setting: under `CCS(=O)(=O)c1ccc2oc(-c3ccc4sccc4c3)nc2c1` [Example 432, 2-(benzo[b]thiophen-5-yl)-5-(ethylsulfonyl)benzo[d]oxazole] stands greater than 401%; under `Cc1ccc(-c2nc3cccnc3o2)cc1` [Example 157, 2-p-tolyloxazolo[5,4-b]pyridine], 301 to 400%.
Same read-out and setting: next, `O=C(Nc1ccc2oc(-c3ccc(Cl)cc3)nc2c1)c1ccco1` [Example 102, N-(2-(4-chlorophenyl)benzo[d]oxazol-5-yl)furan-2-carboxamide]: less than 200%; `CCN(CC)c1ccc(-c2nc3cc(NC(=O)c4ccc(Cl)cc4)ccc3o2)cc1` [Example 63, 4-chloro-N-(2-(4-(diethylamino)phenyl)benzo[d]oxazol-5-yl)benzamide]: less than 200%; `Nc1ccc2oc(NCc3ccc(Cl)cc3)nc2c1` [Example 381, N2-(4-chlorobenzyl)benzo[d]oxazole-2,5-diamine]: less than 200%.
For the compound `CCN(CC)c1ccc(-c2nc3ccc(Cl)cc3o2)cc1` [Example 132, 4-(6-chlorobenzo[d]oxazol-2-yl)-N,N-diethylaniline], the activity at 10 µM is greater than 401%.
With `CCN(CC)c1ccc(-c2nc3cc(N)ccc3o2)cc1` [Example 16, 2-(4-(diethylamino)phenyl)benzo[d]oxazol-5-amine], the activity at 10 µM was in the range of 201 to 300%.
The same measure, in the same setting: under `CCC(=O)Nc1ccc2nn(-c3ccc(Cl)cc3)nc2c1` [Example 148, N-(2-(4-chlorophenyl)-2H-benzo[d][1,2,3]triazol-5-yl)propionamide] stands greater than 401%.
Regarding `CC(C)C(=O)Nc1ccc2oc(-c3ccc4ccccc4n3)nc2c1` [Example 416, N-(2-(quinolin-2-yl)benzo[d]oxazol-5-yl)isobutyramide], the activity at 10 µM was greater than 401%.
Same read-out and setting: under `Nc1ccc(-c2nc3cc(Cl)c(Cl)cc3o2)c(O)c1` [Example 428, 5-amino-2-(5,6-dichlorobenzo[d]oxazol-2-yl)phenol] stands 301 to 400%; under `O=[N+]([O-])c1ccc2oc(C3CCCCC3)nc2c1` [Example 163, 2-cyclohexyl-5-nitrobenzo[d]oxazole], less than 200%.
On the same count and under the same terms, next, `CCCC(=O)Nc1ccc2oc(-c3cccc(N(C)C)c3)nc2c1` [Example 201, N-(2-(3-(dimethylamino)phenyl)benzo[d]oxazol-5-yl)butyramide]: less than 200%; `O=C(CCN1CCOCC1)Nc1ccc2oc(-c3ccccc3)nc2c1` [Example 285, 3-morpholino-N-(2-phenylbenzo[d]oxazol-5-yl)propanamide]: less than 200%; `CC(C)C(=O)Nc1ccc2oc(-c3ccc(F)cc3Cl)nc2c1` [Example 340, N-(2-(2-chloro-4-fluorophenyl)benzo[d]oxazol-5-yl)isobutyramide]: greater than 401%.
Consider `CC(C)C(=O)Nc1ccc2nc(-c3ccc(Cl)c(Cl)c3)oc2c1` [Example 370, N-(2-(3,4-dichlorophenyl)benzo[d]oxazol-6-yl)isobutyramide], for which the activity at 10 µM was greater than 401%.
On the same count and under the same terms, next, `Nc1cnc2oc(-c3ccccc3)nc2c1` [Example 169, 2-phenyloxazolo[5,4-b]pyridin-6-amine]: less than 200%; `CC(C)C(=O)Nc1ccc2oc(-c3ccccc3F)nc2c1` [Example 243, N-(2-(2-fluorophenyl)benzo[d]oxazol-5-yl)isobutyramide]: 301 to 400%.

Still in this experiment, the particulars now being: luciferase reporter assay in murine H2K cells; classified relative to control.
`Cc1ccc(-c2nc3ccccc3[nH]2)cc1` [Example 613]: the Activity result is “+++ (Between 301% and 400% relative to control)”.
Regarding `CC(C)C(=O)Nc1ccc(-c2nc3ccccc3s2)cc1` [Example 651], the Activity result is “+++ (Between 301% and 400% relative to control)”.
Regarding `Oc1cccc(-c2nc3ccccc3s2)c1` [Example 594], the Activity entry was “++++ (Above 401% relative to control)”.
In the case of `COc1ccc2oc(-c3ccc(C)c(N)c3)nc2c1` [Example 686], the Activity result is “++ (Between 201% and 300% relative to control)”.
On the same count and under the same terms, under `CCc1ccc2oc(-c3ccc(C)c(N)c3)nc2c1` [Example 625] stands “++++ (Above 401% relative to control)”; under `Cc1ccc(-c2nc3cc(N)ccc3o2)cc1C` [Example 603], “+++ (Between 301% and 400% relative to control)”.
On the same count and under the same terms, under `CCCS(=O)(=O)c1ccc2oc(-c3ccc(Cl)cc3)nc2c1` [Example 578] stands “+ (Up to 200% relative to control)”; under `Cc1ccc(-c2nc3ccccc3n2C)cc1` [Example 588], “+++ (Between 301% and 400% relative to control)”; under `Cc1ccc2oc(-c3ccc(Cl)c(NC(=O)c4ccco4)c3)nc2c1` [Example 677], “++ (Between 201% and 300% relative to control)”.
The same measure, in the same setting: next, `O=C(Nc1ccc(-c2nc3ccccc3[nH]2)cc1)c1ccc2c(c1)OCO2` [Example 540]: “+ (Up to 200% relative to control)”; `Cc1ccc2[nH]c(-c3ccccc3N)nc2c1` [Example 554]: “+++ (Between 301% and 400% relative to control)”.
For the compound `CNS(=O)(=O)c1ccc2nc(NC(=O)c3cccs3)sc2c1` [Example 687], the Activity result is “++ (Between 201% and 300% relative to control)”.
For `CN(C)S(=O)(=O)c1ccc2nc(NC(=O)c3cccs3)sc2c1` [Example 683], the Activity entry was “++ (Between 201% and 300% relative to control)”.
As to `CN(C)c1ccc(-c2nc3cc([N+](=O)[O-])ccc3[nH]2)cc1` [Example 509], the Activity entry was “++ (Between 201% and 300% relative to control)”.
Same read-out and setting: next, `Cc1ccc(S(=O)(=O)Nc2ccc3[nH]c(-c4ccco4)nc3c2)cc1` [Example 536]: “+ (Up to 200% relative to control)”.
The same measure, in the same setting: next, `CCC(C)C(=O)Nc1ccc(-c2nc3ccccc3[nH]2)cc1` (centres unmarked) [Example 631]: “++++ (Above 401% relative to control)”.
On the same count and under the same terms, under `Oc1ccccc1-c1nc2ccccc2s1` [Example 483] stands “+ (Up to 200% relative to control)”; under `CC(=O)Nc1ccc(-c2nc3ccccc3o2)cc1` [Example 589], “+++ (Between 301% and 400% relative to control)”; under `CC(=O)c1c(C)nc(Nc2nc3ccccc3o2)nc1C` [Example 681], “++ (Between 201% and 300% relative to control)”.
Regarding `Cc1ccc2nc(-c3ccc(C)c(N)c3)oc2c1` [Example 635], the Activity result was “+++ (Between 301% and 400% relative to control)”.
The same measure, in the same setting: under `CC(=O)Nc1ccc2oc(-c3ccc(Cl)cc3Cl)nc2c1` [Example 517] stands “++ (Between 201% and 300% relative to control)”.
Still for that read-out and setting: under `Cc1nc2ccc(NC(=O)Nc3ccccc3)cc2o1` [Example 466] stands “+ (Up to 200% relative to control)”.
`COc1ccc2oc(-c3cccc(N)c3)nc2c1` [Example 630]: the Activity entry is “++++ (Above 401% relative to control)”.

For the origin of these results see patent publication US8501713B2, “Drug combinations for the treatment of duchenne muscular dystrophy” (Summit Corporation PLC, priority 2007, dated 2013).
